Measurements reported in patent US9409905B2, “Antibacterial compounds and methods for use” (PTC THERAPEUTICS, INC., priority 2011, dated 2016).
Values after ≈ are worked out from the molar mass of the structure shown.

Assays:
[1] = system: Moraxella catarrhalis (M. catarrhalis) 25238; test: Antibacterial activity, MIC (Table 7); format: cell-based
From the text: The antibacterial activity from a microbroth dilution method may be presented as the minimum inhibitory concentration (MIC in μg/mL). The MIC value is the lowest concentration of drug which prevents macroscopically visible growth under test conditions.
Antibacterial activity of test compounds against the Gram-negative bacteria Haemophilus influenzae (H. influenzae) 49247 is shown in Table 6, Moraxella catarrhalis (M. catarrhalis) 25238 is shown in Table 7 and Neisseria meningitidis (N. meningitidis) 13090 is shown in Table 8.

E. coli ELZ4000 = test: Antibacterial activity, MIC, multi-drug resistant clinical isolate (Table 3); format: cell-based; settings: Escherichia coli, ELZ4000, read-out: MIC ELZ4000
In short: (§1)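 Broth microdilution assay; MIC reported in μg/mL as the lowest drug concentration preventing macroscopically visible growth under test conditions.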

E. coli ELZ4251 = test: as above; format: cell-based; settings: Escherichia coli
In short: as §1

[2] = system: Neisseria meningitidis (N. meningitidis) 13090; test: Antibacterial activity, MIC (Table 8); format: cell-based
In short: (§2)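 Read-out: absence of macroscopically visible growth. The lowest inhibiting concentration from the microbroth dilution series is reported as MIC in μg/mL.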

E. coli LZ3111 = test: Antibacterial activity, MIC, quinolone resistant strain (Table 2); format: cell-based; settings: Escherichia coli, LZ3111, read-out: MIC LZ3111
In short: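 Microbroth dilution method; MIC (μg/mL) is the lowest drug concentration preventing macroscopically visible growth under test conditions.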

[3] = system: Haemophilus influenzae (H. influenzae) 49247; test: Antibacterial activity, MIC (Table 6); format: cell-based
In short: as §2

E. coli 25922 = test: Antibacterial activity, microbroth dilution MIC (Table 1); format: cell-based, Escherichia coli; settings: Escherichia coli; microbroth dilution; control Gram-negative E. coli 25922 strain; read-out: MIC, 25922
In short: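 Broth microdilution; endpoint = no macroscopic growth; value = lowest inhibiting concn, μg/mL.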

[4] = system: Escherichia coli (E. coli) BAS849; test: as above; format: cell-based; settings: microbroth dilution, super sensitive Gram-negative E. coli BAS849, read-out: MIC, BAS849
In short: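 Each strain is exposed to test compound in a microbroth dilution series; visible growth is scored macroscopically, and the lowest growth-free concentration is recorded as MIC in μg/mL.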

[5] = system: Staphylococcus aureus (S. aureus) 29213; test: as above; format: cell-based; settings: microbroth dilution, Gram-positive S. aureus 29213, read-out: MIC, 29213
In short: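 Broth microdilution against S. aureus 29213, E. coli 25922 and hypersensitive E. coli BAS849. MIC in μg/mL is the lowest drug concentration preventing macroscopically visible growth under test conditions.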

K. pneumoniae MXX1232 = test: Antibacterial activity, MIC, resistant strain (Table 4); format: cell-based; settings: Klebsiella pneumoniae, MXX1232; resistant K. pneumoniae MMX1232, multi-drug resistant clinical isolate; read-out: MIC, MMX1232
In short: (§3)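 The resistant panel comprises multi-drug resistant clinical isolates. All strains were tested by microbroth dilution, with the MIC in μg/mL taken as the lowest concentration that prevented macroscopically visible growth.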

A. baumannii MXX2240 = test: as above; format: cell-based; settings: Acinetobacter baumannii, MXX2240; resistant A. baumannii MMX2240, multi-drug resistant clinical isolate; read-out: MIC, MMX2240
In short: as §3

[6] = system: Klebsiella pneumoniae (K. pneumoniae) 35657; test: Antibacterial activity, MIC (Table 4); format: cell-based; settings: K. pneumoniae 35657, read-out: MIC, 35657
In short: as §3

[7] = system: Acinetobacter baumannii (A. baumannii) BAA747; test: Antibacterial activity, MIC (Table 4); format: cell-based; settings: A. baumannii BAA747, read-out: MIC, BAA747
In short: as §3

[8] = system: Pseudomonas aeruginosa (P. aeruginosa) 27853; test: Antibacterial activity, MIC (Table 5); format: cell-based; settings: P. aeruginosa 27853, read-out: MIC, 27853
In short: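 Activity was measured by microbroth dilution. The MIC, in μg/mL, is the lowest drug concentration that prevents macroscopically visible growth under the test conditions.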

Structure (SMILES)	MIC [1] [µg/mL]	MIC (E. coli ELZ4000) [µg/mL]	MIC (E. coli ELZ4251) [µg/mL]	MIC [2] [µg/mL]	MIC (E. coli LZ3111) [µg/mL]	MIC [3] [µg/mL]	MIC (E. coli 25922) [µg/mL]	MIC [4] [µg/mL]	MIC [5] [µg/mL]	MIC (K. pneumoniae MXX1232) [µg/mL]	MIC (A. baumannii MXX2240) [µg/mL]	MIC [6] [µg/mL]	MIC [7] [µg/mL]	MIC [8] [µg/mL]
Cc1c(-c2ccc3c(c2)cc(CN2CCC2)n3C)[nH]c(=O)c(C(=O)O)c1O [Cpd 316, 6-(2-(azetidin-1-ylmethyl)-1-methyl-1H-indol-5-yl)-4-hydroxy-5-methyl-2-oxo-1,2-dihydropyridine-3-carboxylic acid]	3.5 to 12.5 (≈ 9.53 to 34 µM)	3.5 to 12.5 (≈ 9.53 to 34 µM)	3.5 to 12.5 (≈ 9.53 to 34 µM)	12.5 to 150 (≈ 34 to 408 µM)	< 1	1 to 3.5 (≈ 2.72 to 9.53 µM)	1 to 3.5 (≈ 2.72 to 9.53 µM)	< 1	12.5 to 150 (≈ 34 to 408 µM)	12.5 to 150 (≈ 34 to 408 µM)	1 to 3.5 (≈ 2.72 to 9.53 µM)	3.5 to 12.5 (≈ 9.53 to 34 µM)	3.5 to 12.5 (≈ 9.53 to 34 µM)	12.5 to 150 (≈ 34 to 408 µM)
C#CCNCc1cc2cc(-c3[nH]c(=O)c(C(=O)O)c(O)c3CC)ccc2n1C.Cl [Cpd 277, 5-ethyl-4-hydroxy-6-(1-methyl-2-((prop-2-ynylamino)methyl)-1H-indol-5-yl)-2-oxo-1,2-dihydropyridine-3-carboxylic acid hydrochloride]	< 1	12.5 to 150	3.5 to 12.5	< 1	1 to 3.5	< 1	< 1	< 1	1 to 3.5	12.5 to 150	12.5 to 150	1 to 3.5	1 to 3.5	12.5 to 150
CCc1c(-c2ccc3c(c2)cc(CN2CCC[C@H](NC)C2)n3C)[nH]c(=O)c(C(=O)O)c1O [Cpd 257, (S)-5-ethyl-4-hydroxy-6-(1-methyl-2-((3-(methylamino)piperidin-1-yl)methyl)-1H-indol-5-yl)-2-oxo-1,2-dihydropyridine-3-carboxylic acid]	3.5 to 12.5 (≈ 7.98 to 28.5 µM)	12.5 to 150 (≈ 28.5 to 342 µM)	12.5 to 150 (≈ 28.5 to 342 µM)	1 to 3.5 (≈ 2.28 to 7.98 µM)	3.5 to 12.5 (≈ 7.98 to 28.5 µM)	3.5 to 12.5 (≈ 7.98 to 28.5 µM)	3.5 to 12.5 (≈ 7.98 to 28.5 µM)	< 1	12.5 to 150 (≈ 28.5 to 342 µM)	12.5 to 150 (≈ 28.5 to 342 µM)	12.5 to 150 (≈ 28.5 to 342 µM)	3.5 to 12.5 (≈ 7.98 to 28.5 µM)	12.5 to 150 (≈ 28.5 to 342 µM)	12.5 to 150 (≈ 28.5 to 342 µM)
CNCc1cc2cc(-c3[nH]c(=O)c(C(=O)O)c(O)c3C)ccc2n1C [Cpd 317, 4-hydroxy-5-methyl-6-(1-methyl-2-((methylamino)methyl)-1H-indol-5-yl)-2-oxo-1,2-dihydropyridine-3-carboxylic acid]	3.5 to 12.5 (≈ 10.3 to 36.6 µM)	1 to 3.5 (≈ 2.93 to 10.3 µM)	< 1	< 1	< 1	1 to 3.5 (≈ 2.93 to 10.3 µM)	1 to 3.5 (≈ 2.93 to 10.3 µM)	< 1	12.5 to 150 (≈ 36.6 to 439 µM)	3.5 to 12.5 (≈ 10.3 to 36.6 µM)	1 to 3.5 (≈ 2.93 to 10.3 µM)	1 to 3.5 (≈ 2.93 to 10.3 µM)	3.5 to 12.5 (≈ 10.3 to 36.6 µM)	12.5 to 150 (≈ 36.6 to 439 µM)
CCc1c(-c2ccc3c(c2)cc(CNC2CCC2)n3C)[nH]c(=O)c(C(=O)O)c1O.Cl [Cpd 232, 6-(2-((cyclobutylamino)methyl)-1-methyl-1H-indol-5-yl)-5-ethyl-4-hydroxy-2-oxo-1,2-dihydropyridine-3-carboxylic acid hydrochloride]	< 1	3.5 to 12.5	3.5 to 12.5	< 1	1 to 3.5	< 1	< 1	< 1	3.5 to 12.5	12.5 to 150	1 to 3.5	1 to 3.5	< 1	3.5 to 12.5
CCc1c(-c2ccc3c(c2)cc(CNCC2CCN(C)CC2)n3C)[nH]c(=O)c(C(=O)O)c1O.Cl.Cl [Cpd 234, 5-ethyl-4-hydroxy-6-(1-methyl-2-((((1-methylpiperidin-4-yl)methyl)amino)methyl)-1H-indol-5-yl)-2-oxo-1,2-dihydropyridine-3-carboxylic acid dihydrochloride]	3.5 to 12.5	12.5 to 150	12.5 to 150	1 to 3.5	1 to 3.5	1 to 3.5	1 to 3.5	< 1	12.5 to 150	12.5 to 150	12.5 to 150	1 to 3.5	12.5 to 150	12.5 to 150
CCc1c(-c2ccc3c(c2)cc(CN2CCOCC2)n3C)[nH]c(=O)c(C(=O)O)c1O [Cpd 168, 5-ethyl-4-hydroxy-6-(1-methyl-2-(morpholinomethyl)-1H-indol-5-yl)-2-oxo-1,2-dihydropyridine-3-carboxylic acid]	< 1	12.5 to 150 (≈ 30.4 to 365 µM)	12.5 to 150 (≈ 30.4 to 365 µM)	< 1	3.5 to 12.5 (≈ 8.51 to 30.4 µM)	< 1	1 to 3.5 (≈ 2.43 to 8.51 µM)	< 1	1 to 3.5 (≈ 2.43 to 8.51 µM)	12.5 to 150 (≈ 30.4 to 365 µM)	3.5 to 12.5 (≈ 8.51 to 30.4 µM)	1 to 3.5 (≈ 2.43 to 8.51 µM)	1 to 3.5 (≈ 2.43 to 8.51 µM)	12.5 to 150 (≈ 30.4 to 365 µM)
Cn1ccc2cc(-c3[nH]c(=O)c(C(=O)O)c(O)c3C3CC3)ccc21 [Cpd 36, 5-cyclopropyl-4-hydroxy-6-(1-methyl-1H-indol-5-yl)-2-oxo-1,2-dihydropyridine-3-carboxylic acid]	1 to 3.5 (≈ 3.08 to 10.8 µM)	3.5 to 12.5 (≈ 10.8 to 38.5 µM)	1 to 3.5 (≈ 3.08 to 10.8 µM)	< 1	3.5 to 12.5 (≈ 10.8 to 38.5 µM)	3.5 to 12.5 (≈ 10.8 to 38.5 µM)	12.5 to 150 (≈ 38.5 to 462 µM)	1 to 3.5 (≈ 3.08 to 10.8 µM)	3.5 to 12.5 (≈ 10.8 to 38.5 µM)	12.5 to 150 (≈ 38.5 to 462 µM)	1 to 3.5 (≈ 3.08 to 10.8 µM)	12.5 to 150 (≈ 38.5 to 462 µM)	12.5 to 150 (≈ 38.5 to 462 µM)	12.5 to 150 (≈ 38.5 to 462 µM)
CCc1c(-c2ccc3c(c2)cc(CN(C)C)n3C)[nH]c(=O)c(C(=O)O)c1O [Cpd 166, 6-(2-((dimethylamino)methyl)-1-methyl-1H-indol-5-yl)-5-ethyl-4-hydroxy-2-oxo-1,2-dihydropyridine-3-carboxylic acid]	< 1	12.5 to 150 (≈ 33.8 to 406 µM)	3.5 to 12.5 (≈ 9.47 to 33.8 µM)	< 1	3.5 to 12.5 (≈ 9.47 to 33.8 µM)	< 1	< 1	< 1	3.5 to 12.5 (≈ 9.47 to 33.8 µM)	12.5 to 150 (≈ 33.8 to 406 µM)	1 to 3.5 (≈ 2.71 to 9.47 µM)	< 1	< 1	3.5 to 12.5 (≈ 9.47 to 33.8 µM)
CCc1c(-c2ccc3c(c2)cc(CNC2CCCC2)n3C)[nH]c(=O)c(C(=O)O)c1O.Cl [Cpd 229, 6-(2-((cyclopentylamino)methyl)-1-methyl-1H-indol-5-yl)-5-ethyl-4-hydroxy-2-oxo-1,2-dihydropyridine-3-carboxylic acid hydrochloride]	< 1	12.5 to 150	3.5 to 12.5	< 1	3.5 to 12.5	< 1	< 1	< 1	3.5 to 12.5	12.5 to 150	1 to 3.5	< 1	< 1	3.5 to 12.5
CCc1c(-c2ccc3c(c2)cc(CC2CC2C)n3C)[nH]c(=O)c(C(=O)O)c1O.Cl (stereo not drawn) [Cpd 240, 5-ethyl-4-hydroxy-6-(1-methyl-2-((2-methylcyclopropyl)methyl)-1H-indol-5-yl)-2-oxo-1,2-dihydropyridine-3-carboxylic acid hydrochloride]	< 1	12.5 to 150	3.5 to 12.5	< 1	3.5 to 12.5	< 1	< 1	< 1	3.5 to 12.5	12.5 to 150	1 to 3.5	< 1	< 1	3.5 to 12.5
CCc1c(-c2ccc3c(cnn3C)c2)[nH]c(=O)c(C(=O)O)c1O [Cpd 42, 5-ethyl-4-hydroxy-6-(1-methyl-1H-indazol-5-yl)-2-oxo-1,2-dihydropyridine-3-carboxylic acid]	< 1	3.5 to 12.5 (≈ 11.2 to 39.9 µM)	3.5 to 12.5 (≈ 11.2 to 39.9 µM)	< 1	1 to 3.5 (≈ 3.19 to 11.2 µM)	< 1	3.5 to 12.5 (≈ 11.2 to 39.9 µM)	< 1	12.5 to 150 (≈ 39.9 to 479 µM)	12.5 to 150 (≈ 39.9 to 479 µM)	3.5 to 12.5 (≈ 11.2 to 39.9 µM)	3.5 to 12.5 (≈ 11.2 to 39.9 µM)	1 to 3.5 (≈ 3.19 to 11.2 µM)	12.5 to 150 (≈ 39.9 to 479 µM)
